Assay results taken from PubChem BioAssay (NCI).
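Exposure lasted 48 hours, with cells grown in 96-well plates and compounds tested at five concentrations. GI50 = concentration required for 50% inhibition of growth. TGI: total growth inhibition.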

How the values were obtained:
Assay in all cases: NCI-60 cell line screen, 48 h
786-0 renal = test system: 786-0 renal
A498 renal = test system: A498 renal
A549 NSCLC = test system: A549 NSCLC
ACHN renal = test system: ACHN renal
BT-549 breast = test system: BT-549 breast
CAKI-1 renal = test system: CAKI-1 renal
CCRF-CEM leukemia = test system: CCRF-CEM leukemia
COLO 205 colon = test system: COLO 205 colon
DU-145 prostate = test system: DU-145 prostate
EKVX NSCLC = test system: EKVX NSCLC
HCC-2998 colon = test system: HCC-2998 colon
HCT-116 colon = test system: HCT-116 colon
HCT-15 colon = test system: HCT-15 colon
HL-60(TB) leukemia = test system: HL-60(TB) leukemia
HOP-62 NSCLC = test system: HOP-62 NSCLC
HS 578T breast = test system: HS 578T breast
HT29 colon = test system: HT29 colon
IGROV1 ovarian = test system: IGROV1 ovarian
K-562 leukemia = test system: K-562 leukemia
KM12 colon = test system: KM12 colon
LOX IMVI melanoma = test system: LOX IMVI melanoma
M14 melanoma = test system: M14 melanoma
MALME-3M melanoma = test system: MALME-3M melanoma
MCF7 breast = test system: MCF7 breast
MDA-MB-231 breast = test system: MDA-MB-231 breast
MDA-MB-435 = test system: MDA-MB-435
MDA-MB-468 breast = test system: MDA-MB-468 breast
MOLT-4 leukemia = test system: MOLT-4 leukemia
NCI-H226 lung = test system: NCI-H226 lung
NCI-H23 lung = test system: NCI-H23 lung
NCI-H460 lung = test system: NCI-H460 lung
NCI-H522 lung = test system: NCI-H522 lung
NCI/ADR-RES ovarian = test system: NCI/ADR-RES ovarian
OVCAR-3 ovarian = test system: OVCAR-3 ovarian
OVCAR-4 ovarian = test system: OVCAR-4 ovarian
OVCAR-5 ovarian = test system: OVCAR-5 ovarian
OVCAR-8 ovarian = test system: OVCAR-8 ovarian
PC-3 prostate = test system: PC-3 prostate
RPMI-8226 leukemia = test system: RPMI-8226 leukemia
RXF 393 renal = test system: RXF 393 renal
SF-268 CNS = test system: SF-268 CNS
SF-295 CNS = test system: SF-295 CNS
SF-539 CNS = test system: SF-539 CNS
SK-MEL-2 melanoma = test system: SK-MEL-2 melanoma
SK-MEL-28 melanoma = test system: SK-MEL-28 melanoma
SK-MEL-5 melanoma = test system: SK-MEL-5 melanoma
SK-OV-3 ovarian = test system: SK-OV-3 ovarian
SN12C renal = test system: SN12C renal
SNB-19 CNS = test system: SNB-19 CNS
SR leukemia = test system: SR leukemia
SW-620 colon = test system: SW-620 colon
TK-10 renal = test system: TK-10 renal
U251 CNS = test system: U251 CNS
UACC-257 melanoma = test system: UACC-257 melanoma
UACC-62 melanoma = test system: UACC-62 melanoma
UO-31 renal = test system: UO-31 renal

## COc1cc(OC)cc(-c2cc3ccc(N(C)C)cc3c(=O)[nH]2)c1
786-0 renal
  GI50: 45.1 nM
  TGI: > 63300 nM
A498 renal
  GI50: > 100000 nM
  TGI: > 100000 nM
A549 NSCLC
  GI50: 39 nM
  TGI: > 100000 nM
ACHN renal
  GI50: 52.2 nM
  TGI: > 100000 nM
BT-549 breast
  GI50: 38 nM
  TGI: > 100000 nM
CAKI-1 renal
  GI50: 14.5 nM
  TGI: > 100000 nM
CCRF-CEM leukemia
  GI50: 39.6 nM
  TGI: > 100000 nM
COLO 205 colon
  GI50: 22.3 nM
  TGI: 58.3 nM
DU-145 prostate
  GI50: 45.6 nM
  TGI: > 100000 nM
EKVX NSCLC
  GI50: 58.8 nM
  TGI: > 100000 nM
HCC-2998 colon
  GI50: 25.7 nM
  TGI: > 100000 nM
HCT-116 colon
  GI50: < 13.5 nM
  TGI: > 100000 nM
HCT-15 colon
  GI50: < 11.6 nM
HL-60(TB) leukemia
  GI50: < 11 nM
  TGI: 43.4 nM
HOP-62 NSCLC
  GI50: 38 nM
  TGI: > 100000 nM
HS 578T breast
  GI50: 25.2 nM
  TGI: > 100000 nM
HT29 colon
  GI50: 16.4 nM
  TGI: 52.9 nM
IGROV1 ovarian
  GI50: 44.6 nM
  TGI: > 100000 nM
K-562 leukemia
  GI50: < 10 nM
  TGI: > 100000 nM
KM12 colon
  GI50: 31 nM
  TGI: > 100000 nM
LOX IMVI melanoma
  GI50: 19 nM
  TGI: > 100000 nM
M14 melanoma
  GI50: < 10.6 nM
  TGI: > 48200 nM
MALME-3M melanoma
  GI50: 24 nM
  TGI: > 100000 nM
MCF7 breast
  GI50: 33.1 nM
  TGI: > 100000 nM
MDA-MB-231 breast
  GI50: 30.3 nM
  TGI: 3600 nM
MDA-MB-435
  GI50: < 10 nM
  TGI: 14.9 nM
MDA-MB-468 breast
  GI50: 21.7 nM
  TGI: 69 nM
MOLT-4 leukemia
  GI50: 25.4 nM
  TGI: > 100000 nM
NCI-H226 lung
  GI50: 219 nM
  TGI: > 100000 nM
NCI-H23 lung
  GI50: 42.6 nM
  TGI: > 100000 nM
NCI-H460 lung
  GI50: 34.1 nM
  TGI: > 100000 nM
NCI-H522 lung
  GI50: < 10 nM
  TGI: 47.3 nM
NCI/ADR-RES ovarian
  GI50: < 10 nM
  TGI: 33.6 nM
OVCAR-3 ovarian
  GI50: 19.1 nM
  TGI: 37800 nM
OVCAR-4 ovarian
  GI50: 1670 nM
  TGI: > 100000 nM
OVCAR-5 ovarian
  GI50: 35.7 nM
  TGI: > 100000 nM
OVCAR-8 ovarian
  GI50: 29.8 nM
  TGI: 187 nM
PC-3 prostate
  GI50: 40 nM
  TGI: > 100000 nM
RPMI-8226 leukemia
  GI50: 43.6 nM
  TGI: > 100000 nM
RXF 393 renal
  GI50: 15.5 nM
  TGI: > 100000 nM
SF-268 CNS
  GI50: 354 nM
  TGI: > 100000 nM
SF-295 CNS
  GI50: < 10.6 nM
SF-539 CNS
  GI50: 11.7 nM
  TGI: 42.6 nM
SK-MEL-2 melanoma
  GI50: 25.6 nM
  TGI: > 100000 nM
SK-MEL-28 melanoma
  GI50: 42.2 nM
  TGI: > 100000 nM
SK-MEL-5 melanoma
  GI50: 17.1 nM
  TGI: 145 nM
SK-OV-3 ovarian
  GI50: 33.5 nM
  TGI: > 100000 nM
SN12C renal
  GI50: 37.2 nM
  TGI: > 100000 nM
SNB-19 CNS
  GI50: 54.2 nM
  TGI: > 100000 nM
SR leukemia
  GI50: < 10 nM
  TGI: > 100000 nM
SW-620 colon
  GI50: < 10.6 nM
  TGI: > 100000 nM
TK-10 renal
  GI50: > 100000 nM
  TGI: > 100000 nM
U251 CNS
  GI50: 15.1 nM
  TGI: > 47000 nM
UACC-257 melanoma
  GI50: > 100000 nM
  TGI: > 100000 nM
UACC-62 melanoma
  GI50: < 10 nM
  TGI: > 100000 nM
UO-31 renal
  GI50: 52.3 nM
  TGI: > 100000 nM
